Patent US7759373B2, “Large conductance calcium-activated K channel opener” (Mitsubishi Tanabe Pharma Corporation, priority 2001, dated 2010)

What follows are compounds tested on rhythmic bladder contractions induced by substance P (assay: Inhibitory effect on the rhythmic bladder contractions induced by substance P in anesthetized rats). Conditions: time during which frequency of rhythmic contraction was completely inhibited, 0.25 mg/kg of the compound, substance P infusion.
Format: in vivo, rat
Protocol: Inhibitory effect on the rhythmic bladder contractions induced by substance P in anesthetized rats
For the experiments, Sprague-Dawley female rats (9 to 12 weeks old) weighing between 200 to 300 g were used. After urethane anesthetization (subcutaneously administered with a dose of 1.2 g/kg), cannulae were placed in both right and left femoral veins. One intravenous catheter was used for administration of compounds, and the other was for the substance P (0.33 μg/kg/min) infusion. We also cannulated into ureter to pass urine. Polyethylene catheters were inserted into carotid artery for continuous monitoring of arterial blood pressure and heart rate. For continuous infusion, transurethral bladder catheter was inserted into the bladder through the urethra and tied in place by a ligature around the urethral orifice. One end of the catheter was attached to a pressure transducer in order to measure intravesical pressure. The other end of the catheter was used for infusion of saline into the bladder. After stabilization of blood pressure and heart rate and after the bladder was emptied, cystometry was performed by filling the bladder slowly with about 0.6 ml of saline. After about 10 minutes, intravenous infusion of substance P (0.33 μg/kg/min) was started for stabilization of the micturition reflex. Compounds were administered after stable rhythmic bladder contraction was obtained over 15 minutes. All compounds were dissolved or suspended in saline containing 0.5% Tween 80 for intravenous administration (0.1 ml/kg).
A 100% inhibition time (minute) of the selected compounds of the present invention is shown in the following Table 65 with a rank of A, B or C. These ranges are as mentioned below. A≧20>B≧10>C (minute)
For `CS(=O)(=O)Nc1nc(-c2ccc(F)cc2)oc1-c1ccc(Cl)c(F)c1.[Na]` [Preparation Example 348, 5-(4-chloro-3-fluorophenyl)-2-(4-fluorophenyl)oxazol-4-yl methanesulfonamide sodium salt], the “100% inhibition time range” value was “C (A≧20>B≧10>C (minute))”. With `COc1cccc(-c2nc(CC(=O)O)c(-c3cccs3)o2)c1` [Preparation Example 263] the “100% inhibition time range” value was “C (A≧20>B≧10>C (minute))”. `COCc1nc(-c2ccc(C#N)cc2)[nH]c1-c1ccccc1` [Preparation example 124] was tested, and the “100% inhibition time range” value was “B (A≧20>B≧10>C (minute))”. `CN(C)c1ccc(-c2nc(CC(=O)O)c(-c3ccc(Cl)s3)s2)cn1` [Preparation Example 608] was tested, and the “100% inhibition time range” value was “B (A≧20>B≧10>C (minute))”. With `CN(C)c1ccc(-c2nc(-c3ccc(Cl)s3)c(CC(=O)O)s2)cc1` [Preparation Example 589] the “100% inhibition time range” value was “A (A≧20>B≧10>C (minute))”. With `O=C(O)Cc1nc(-c2ccc3c(c2)CCCS3)oc1-c1ccc(Cl)s1` [Preparation Example 456] the “100% inhibition time range” value was “C (A≧20>B≧10>C (minute))”. In the case of `CCc1[nH]c(-c2cc(Cl)sc2S(N)(=O)=O)nc1-c1cccnc1.Cl.Cl` [Preparation example 144, 2-(5-Chloro-2-sulfamoylthiophen-3-yl)-5-ethyl-4-(3-pyridyl) imidazole dihydrochloride], the “100% inhibition time range” value is reported as “C (A≧20>B≧10>C (minute))”. With `CCc1[nH]c(-c2cc(Cl)sc2S(=O)(=O)O)nc1-c1cccnc1.Cl.Cl` [Preparation example 143, 2-(5-Chloro-2-sulfothiophen-3-yl)-5-ethyl-4-(3-pyridyl)-imidazole dihydrochloride] the “100% inhibition time range” value was “C (A≧20>B≧10>C (minute))”. With `N#CCCc1nc(-c2ccc(F)cc2)oc1-c1cccs1` [Preparation Example 337, 4-(2-cyanoethyl)-2-(4-fluorophenyl)-5-(2-thienyl)oxazole] the “100% inhibition time range” value was “C (A≧20>B≧10>C (minute))”. In the case of `N#CCCc1nc(-c2ccc(F)cc2)[nH]c1-c1ccsc1` [Preparation example 46], the “100% inhibition time range” value is reported as “B (A≧20>B≧10>C (minute))”. In the case of `O=C(O)Cc1nc(-c2ccc(Cl)cc2)oc1-c1cccnc1` [Preparation example 142], the “100% inhibition time range” value is reported as “C (A≧20>B≧10>C (minute))”. For `CCOC(=O)Cc1nc(-c2ccc(F)cc2)oc1-c1ccccc1` [Preparation Example 296, ethyl 2-(4-fluoro-phenyl)-5-phenyloxazol-4-yl acetate], the “100% inhibition time range” value was “C (A≧20>B≧10>C (minute))”. `O=C(O)Cc1nc(-c2ccc(F)cc2)oc1-c1cccs1` [Preparation Example 614] was tested, and the “100% inhibition time range” value was “C (A≧20>B≧10>C (minute))”. For `COc1ccc(-c2nc(CC(=O)O)c(-c3ccc(Cl)s3)o2)cc1O` [Preparation Example 290], the “100% inhibition time range” value was “B (A≧20>B≧10>C (minute))”. With `CCN(CC)c1ccc(-c2nc(CC(=O)O)c(-c3ccsc3)o2)cn1` [Preparation Example 530] the “100% inhibition time range” value was “C (A≧20>B≧10>C (minute))”. With `COc1ccc(-c2nc(CC(=O)O)c(-c3ccc(Cl)c(F)c3)o2)cc1` [Preparation Example 525] the “100% inhibition time range” value was “A (A≧20>B≧10>C (minute))”. In the case of `COCc1nc(-c2cccc(F)c2)[nH]c1-c1ccccc1` [Preparation example 123], the “100% inhibition time range” value is reported as “C (A≧20>B≧10>C (minute))”. With `CN(C)c1cnc(-c2nc(CC(=O)O)c(-c3ccc(Cl)s3)o2)cn1` [Preparation Example 628] the “100% inhibition time range” value was “C (A≧20>B≧10>C (minute))”. For `CCc1[nH]c(-c2ccc(F)cc2)nc1C(=O)c1ccccn1` [Preparation example 72, 5-ethyl-2-(4-fluorophenyl)-imidazol-4-yl-(2-pyridyl) ketone], the “100% inhibition time range” value was “C (A≧20>B≧10>C (minute))”. In the case of `O=C(O)Cc1sc(-c2ccc(F)cc2)nc1-c1cccs1` [Preparation Example 577], the “100% inhibition time range” value is reported as “B (A≧20>B≧10>C (minute))”. In the case of `CCc1[nH]c(-c2ccc(F)cc2)nc1-c1cccnc1.Cl.Cl` [Preparation example 80, 5-ethyl-2-(4-fluorophenyl)-4-(3-pyridyl)imidazole dihydrochloride], the “100% inhibition time range” value is reported as “B (A≧20>B≧10>C (minute))”.
